In patent publication US7572815B2, “Amide derivative” (Ajinomoto Co., Inc., priority 2003, dated 2009):

System: male ICR mouse
Experiment: Acetic acid-induced writhing method
Type: in vivo
Details: intraperitoneal, 30 minutes before 0.8% acetic acid
Procedure: The effect of the test compound was considered using male ICR mouse (4-week-old) according to a writhing test method induced by acetic acid. For intraperitoneal administration of a test compound and a standard product, the test compound was dissolved in a saline containing 5% DMSO and 5% Tween 80 to a suitable concentration. The test compound was administered 30 minutes before intraperitoneal administration of 0.8% acetic acid solution (diluted with saline), and the number of writhing was measured for 15 minutes from 5 minutes after acetic acid administration. A saline containing 5% DMSO and 5% Tween 80 was intraperitoneally administered to all control groups (vehicle administration group). Using indomethacin as a standard product, the same test was performed.
The number of writhing by each test compound is shown in FIG. 1, and the number of writhings by indomethacin is shown in FIG. 2.

SMILES	Inhibition ratio (%) of number of writhing (dose 10 mg/kg) [%]	Inhibition ratio (%) of number of writhing (dose 20 mg/kg) [%]
CCN(CCCC(=O)Nc1ccccc1Br)c1cccc(C)c1 [Example 52, N-(2-bromophenyl)-4-(ethyl-3-methylanilino)butanamide]	19	67
COc1ccc2c(c1)c(CC(=O)O)c(C)n2C(=O)c1ccc(Cl)cc1 [indomethacin, reference compound]	31	
